Measurements from patent US20250122160A1, “PROTEIN TYROSINE PHOSPHATASE INHIBITORS AND METHODS OF USE THEREOF” (Calico Life Sciences LLC, priority 0001, published 2025).

Key:
[1] = molecular target: T1, His tagged PTPN2 (TC45) protein (Homo sapiens, UniProt P17706); assay: Mobility shift assay (MSA) to determine potency of PTPN2 inhibitors; format: biochemical; conditions: 0.5 nM enzyme, 2 μM substrate
T1 construct: made in house
T1 sequence (P17706 with tags, fused parts or gaps isoform P17706-2): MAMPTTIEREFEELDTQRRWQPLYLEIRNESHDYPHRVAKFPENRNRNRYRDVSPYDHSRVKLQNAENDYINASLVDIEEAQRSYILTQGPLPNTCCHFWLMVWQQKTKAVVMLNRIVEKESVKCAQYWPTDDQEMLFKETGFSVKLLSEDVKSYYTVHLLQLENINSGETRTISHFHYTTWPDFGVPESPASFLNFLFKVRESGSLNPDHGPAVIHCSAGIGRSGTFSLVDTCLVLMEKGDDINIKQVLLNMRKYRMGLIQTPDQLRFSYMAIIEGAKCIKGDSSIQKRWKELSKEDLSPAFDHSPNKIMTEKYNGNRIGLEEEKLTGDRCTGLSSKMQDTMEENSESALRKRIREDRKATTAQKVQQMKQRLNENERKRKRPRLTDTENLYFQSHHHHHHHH
Procedure: Compound activity was determined using in house His tagged PTPN2 (TC45) protein (SEQ ID NO: 1) in an in vitro enzymatic reaction. The enzymatic assay used to determine activity was a mobility shift assay using a LabChip EZ Reader by Caliper Life Sciences. The enzymatic reaction was carried out in assay buffer (50 mM HEPES pH 7.5, 1 mM EGTA, 10 mM EDTA, 0.01% Tween® 20, and 2 mM DTT). The compounds were dispensed on a white 384 well ProxiPlate™ (PerkinElmer Catalog #6008289) plate using the Labcyte Echo at varying concentrations (12 point, 1:3 dilution). The enzyme (at 0.5 nM) was incubated with compound for 10 minutes at room temperature. Then the substrate (phosphorylated insulin receptor probe sequence: ((OG488)-(NH—CH2—CH2—O—CH2—CH2—O—CH2—CO)-T-R-D-I-(PY)-E-T-D-Y—Y—R—K—K—NH2) (SEQ ID NO: 2) was added at 2 μM to the plates and incubated for another 10 minutes at room temperature. Finally, a quench solution (water and 4-bromo-3-(2-oxo-2-propoxyethoxy)-5-(3-{[1-(phenylmethanesulfonyl)piperidin-4-yl]amino}phenyl)thiophene-2-carboxylic acid) was added to the plates, which were then run on the EZ Reader (excitation 488 nm, emission 530 nm) to measure % conversion (the amount of phosphorylated substrate which was de-phosphorylated by PTPN2). […] The % inhibition was then used to calculate the IC50 values.

[2] = molecular target: T2, His tagged full-length PTPN1 protein (Homo sapiens, UniProt P18031); assay: Mobility shift assay (MSA) to determine potency of PTPN1 inhibitors; format: biochemical; conditions: 0.5 nM enzyme, 2 μM substrate
T2 construct: made in house
T2 sequence (P18031 with tags, fused parts or gaps): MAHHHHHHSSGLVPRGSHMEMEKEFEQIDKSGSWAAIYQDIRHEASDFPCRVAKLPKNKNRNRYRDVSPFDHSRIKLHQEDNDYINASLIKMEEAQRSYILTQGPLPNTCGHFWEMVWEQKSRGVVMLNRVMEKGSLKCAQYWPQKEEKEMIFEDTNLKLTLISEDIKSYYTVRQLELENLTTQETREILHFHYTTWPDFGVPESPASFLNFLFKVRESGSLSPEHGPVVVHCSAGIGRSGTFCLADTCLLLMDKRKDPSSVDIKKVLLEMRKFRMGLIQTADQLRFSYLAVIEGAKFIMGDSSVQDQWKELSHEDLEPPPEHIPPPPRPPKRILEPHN
Procedure: Compound activity was determined using in house His tagged full-length PTPN1 protein (SEQ ID NO: 3) in an in vitro enzymatic reaction. The enzymatic assay used to determine activity is a mobility shift assay using a LabChip EZ Reader by Caliper Life Sciences. The enzymatic reaction was carried out in assay buffer (50 mM HEPES pH 7.5, 1 mM EGTA, 10 mM EDTA. 0.01% Tween® 20, and 2 mM DTT). The compounds were dispensed on a white 384 well ProxiPlate™ (PerkinElmer Cat #6008289) plate using a Labcyte Echo® liquid handler at varying concentrations (12 point, 1:3 dilution). The enzyme (at 0.5 nM) was incubated with compound for 10 minutes at room temperature. Then the substrate (phosphorylated insulin receptor probe sequence: ((OG488)-(NH—CH2—CH2—O—CH2—CH2—O—CH2—CO)-T-R-D-I-(PY)-E-T-D-Y—Y—R—K—K—NH2) (SEQ ID NO: 2) was added at 2 μM to the plates and incubated for another 10 minutes at room temperature. Finally, a quench solution (water and 4-bromo-3-(2-oxo-2-propoxyethoxy)-5-(3-{[1-(phenylmethanesulfonyl)piperidin-4-yl]amino}phenyl)thiophene-2-carboxylic acid) was added to the plates, which were then run on the EZ Reader (excitation 488 nm, emission 530 nm) to measure % conversion (the amount of phosphorylated substrate which was de-phosphorylated by PTPN1). […] The % inhibition was then used to calculate the IC50 values.

Structure (SMILES) | IC50 [1] [nM] | IC50 [2] [nM]
N[C@@H]1CCc2cc(O)c(N3CC(=O)NS3(=O)=O)c(F)c2C1 [Compound 198] | 10 to 100 | > 100
CC(C)CCN[C@@H]1COc2cc(O)c(N3CC(=O)NS3(=O)=O)c(F)c2C1 [Compound 372, 5-{(3S)-5-fluoro-7-hydroxy-3-[(3-methylbutyl)amino]-3,4-dihydro-2H-1-benzopyran-6-yl}-1λ^6,2,5-thiadiazolidine-1,1,3-trione] | 10 to 100 | 10 to 100
[2H]C1([2H])C(=O)NS(=O)(=O)N1c1c(O)cc2c(c1F)C[C@H](NCCC(C)C)CC2 [Compound 327, 5-{(7R)-1-fluoro-3-hydroxy-7-[(3-methylbutyl)amino]-5,6,7,8-tetrahydronaphthalen-2-yl}(4,4-^2H2)-1λ^6,2,5-thiadiazolidine-1,1,3-trione] | < 1 | 1 to 10
CC(C)(C)OC(=O)NCC1CCc2cc(O)c(N3CC(=O)NS3(=O)=O)c(F)c2C1 (stereo not drawn) [Compound 391, tert-butyl {[8-fluoro-6-hydroxy-7-(1,1,4-trioxo-1λ^6,2,5-thiadiazolidin-2-yl)-1,2,3,4-tetrahydronaphthalen-2-yl]methyl}carbamate] | 10 to 100 | 10 to 100
O=C1CN(c2c(O)cc3c(c2F)CCCC3)S(=O)(=O)N1 [Compound 108] | 10 to 100 | 10 to 100
COCCCN[C@@H]1CCc2cc(O)c(N3CC(=O)NS3(=O)=O)c(F)c2C1 [Compound 363, 5-{(7R)-1-fluoro-3-hydroxy-7-[(3-methoxypropyl)amino]-5,6,7,8-tetrahydronaphthalen-2-yl}-1λ^6,2,5-thiadiazolidine-1,1,3-trione] | 1 to 10 | 10 to 100
Cc1nn(C(C)C)c(C)c1CCN1CCc2cc(O)c(N3CC(=O)NS3(=O)=O)c(F)c2C1 [Compound 273] | 1 to 10 | 1 to 10
C[C@H]1C[C@@H](N)Cc2c1cc(O)c(N1CC(=O)NS1(=O)=O)c2F [Compound 398, 5-[(5S,7R)-7-amino-1-fluoro-3-hydroxy-5-methyl-5,6,7,8-tetrahydronaphthalen-2-yl]-1λ^6,2,5-thiadiazolidine-1,1,3-trione] | 10 to 100 | 10 to 100
CCCCNCC1CCc2cc(O)c(N3CC(=O)NS3(=O)=O)c(F)c2C1 (stereo not drawn) [Compound 396, 5-{7-[(butylamino)methyl]-1-fluoro-3-hydroxy-5,6,7,8-tetrahydronaphthalen-2-yl}-1λ^6,2,5-thiadiazolidine-1,1,3-trione] | 10 to 100 | 10 to 100
CN1CCN(CCCN2CCc3cc(O)c(N4CC(=O)NS4(=O)=O)c(F)c3C2)CC1 [Compound 232] | > 100 | 10 to 100
O=C1CN(c2c(O)cc3c(c2F)CC(NCc2ccccn2)CC3)S(=O)(=O)N1 (stereo not drawn) [Compound 155] | 10 to 100 | 10 to 100
COCCN1CCc2cc(O)c(N3CC(=O)NS3(=O)=O)c(F)c2C1 [Compound 216] | > 100 | > 100
CCC(CC)CCN[C@@H]1CCc2cc(O)c(N3CC(=O)NS3(=O)=O)c(F)c2C1 [Compound 204] | < 1 | 1 to 10
CC(C)CCCN1CCc2cc(O)c(N3CC(=O)NS3(=O)=O)c(F)c2C1 [Compound 145] | 10 to 100 | 10 to 100
NCC1(CCN[C@@H]2CCc3cc(O)c(N4CC(=O)NS4(=O)=O)c(F)c3C2)CCC1 [Compound 376, 5-[(7R)-7-({2-[1-(aminomethyl)cyclobutyl]ethyl}amino)-1-fluoro-3-hydroxy-5,6,7,8-tetrahydronaphthalen-2-yl]-1λ^6,2,5-thiadiazolidine-1,1,3-trione] | < 1 | 1 to 10
CC(C)CCN[C@H]1Cc2c(cc(O)c(N3CC(=O)NS3(=O)=O)c2F)C[C@@H]1O [Compound 411, 5-{(6S,7S)-1-fluoro-3,6-dihydroxy-7-[(3-methylbutyl)amino]-5,6,7,8-tetrahydronaphthalen-2-yl}-1λ^6,2,5-thiadiazolidine-1,1,3-trione] | < 1 | 1 to 10
O=C1CN(c2c(O)cc3c(c2F)C[C@H](NCC2CC(c4ccccc4)C2)CO3)S(=O)(=O)N1 (stereo partly drawn) [Compound 385, 5-[(3S)-5-fluoro-7-hydroxy-3-{[(3-phenylcyclobutyl)methyl]amino}-3,4-dihydro-2H-1-benzopyran-6-yl]-1λ^6,2,5-thiadiazolidine-1,1,3-trione] | 1 to 10 | 10 to 100
Cc1n[nH]c(C)c1CCN1CCc2cc(O)c(N3CC(=O)NS3(=O)=O)c(F)c2C1 [Compound 194] | 1 to 10 | 1 to 10
CC(C)CCCN1CCc2cc(O)c(N3CC(=O)NS3(=O)=O)c(F)c2C1=O [Compound 387, 5-[8-fluoro-6-hydroxy-2-(4-methylpentyl)-1-oxo-1,2,3,4-tetrahydroisoquinolin-7-yl]-1λ^6,2,5-thiadiazolidine-1,1,3-trione] | > 100 | > 100
O=C1CN(c2c(O)cc3c(c2F)CN(C(=O)NCCC2CC2)CC3)S(=O)(=O)N1 [Compound 264] | 10 to 100 | 10 to 100
CC(C)CCC[C@H]1Cc2c(cc(O)c(N3CC(=O)NS3(=O)=O)c2F)CN1 [Compound 325] | 1 to 10 | 1 to 10
Cc1nn(C)cc1CCN1CCc2cc(O)c(N3CC(=O)NS3(=O)=O)c(F)c2C1 [Compound 256] | 1 to 10 | 1 to 10
CC1C[C@@H](NC(=O)OC(C)(C)C)Cc2c1cc(O)c(N1CC(=O)NS1(=O)=O)c2F (mixture of isomers) [Compound 392, tert-butyl [(2R)-8-fluoro-6-hydroxy-4-methyl-7-(1,1,4-trioxo-1λ^6,2,5-thiadiazolidin-2-yl)-1,2,3,4-tetrahydronaphthalen-2-yl]carbamate] | 10 to 100 | 10 to 100
O=C1CN(c2c(O)cc3c(c2F)CN(C(=O)NCC2CCCCC2)CC3)S(=O)(=O)N1 [Compound 321] | 1 to 10 | 1 to 10
O=C1CN(c2c(O)cc3c(c2F)C[C@H](NCCC2CCCC2)CC3)S(=O)(=O)N1 [Compound 200, 5-{(7R)-7-[(2-cyclopentylethyl)amino]-1-fluoro-3-hydroxy-5,6,7,8-tetrahydronaphthalen-2-yl}-1λ^6,2,5-thiadiazolidine-1,1,3-trione] | < 1 | < 1
O=C1CN(c2c(O)cc3c(c2F)C[C@H](NCC2(CF)CC2)CO3)S(=O)(=O)N1 [Compound 381, 5-[(3S)-5-fluoro-3-({[1-(fluoromethyl)cyclopropyl]methyl}amino)-7-hydroxy-3,4-dihydro-2H-1-benzopyran-6-yl]-1λ^6,2,5-thiadiazolidine-1,1,3-trione] | 10 to 100 | > 100
Cc1cc(CN[C@@H]2CCc3cc(O)c(N4CC(=O)NS4(=O)=O)c(F)c3C2)no1 [Compound 351, 5-[(7R)-1-fluoro-3-hydroxy-7-{[(5-methyl-1,2-oxazol-3-yl)methyl]amino}-5,6,7,8-tetrahydronaphthalen-2-yl]-1λ^6,2,5-thiadiazolidine-1,1,3-trione] | 10 to 100 | 10 to 100
